Test results: patent US12459925B2, “Sulphonyl urea derivatives as NLRP3 inflammasome modulators” (priority 2017, dated 2025)

System: IL-1β release upon NLRP3 activation in peripheral blood mononuclear cells (PBMC)
Experiment: PBMC IC50 determination assay (IL-1β release, Protocol A ELISA / Protocol B HTRF)
Type: cell-based
Details: Homo sapiens; PBMC primed with LPS 3 h, compound 30 min, stimulated with ATP (5 mM) or nigericin (10 μM) 1 h; IL-1β in media; read-out: Average PBMC IC50
Procedure: The compounds of the present disclosure were tested for their inhibitory activity against IL-1β release upon NLRP3 activation in peripheral blood mononuclear cells (PBMC).
Isolated cells were seeded into the wells of a 96-well plate and incubated for 3 h with lipopolysaccharide (LPS). Following medium exchange, the compounds of the present disclosure were added (a single compound per well) and the cells were incubated for 30 min. Next, the cells were stimulated either with ATP (5 mM) or nigericin (10 μM) for 1 h and the cell culture media from the wells were collected for further analysis.
The release of IL1-β into the media was determined by a quantitative detection of IL-1β in the media using an IL-1β enzyme-linked immunosorbent assay (ELISA) Ready-SET-Go!, eBioscience cat. […] Subsequently, plates were blocked with blocking buffer for 1 h at room temperature (rt) and after washing with a buffer (PBS with 0.05% Tween-20) incubated with protein standard and culture media. […] Plates were washed and incubated with HRP-streptavidin for 30 min at rt and washed again. The signal was developed after addition of 3,3′,5,5′-tetramethylbenzidine-peroxidase (TMB) until colour appeared and the reaction was stopped by 2 M H2SO4. A microplate spectrophotometer (BioTek) was used to detect signals with 450 nm. The detection range of IL-1β ELISA was 2-150 ng/ml.
Isolated cells were seeded into the wells (280,000 cells/well) of a 96-well plate and incubated for 3 h with lipopolysaccharide (LPS, 1 μg/ml diluted 1000× from a 1 mg/ml stock solution). The compounds of the present disclosure were added (a single compound per well) and the cells were incubated for 30 min. Next, the cells were stimulated with ATP (5 mM final concentration diluted 20× from a 100 mM stock solution) for 1 h and the cell culture media from the wells were collected for further analysis.
The release of IL-1β into the media was determined by quantitative detection of IL-1β in the media using HTRF®, CisBio cat. No. 62HIL1BPEH. Briefly, cell culture supernatant were dispensed directly into the assay plate containing antibodies labelled with the HTRF® donor and acceptor. A microplate spectrophotometer (BMG) was used to detect signals at 655 nm and 620 nm. The detection range of IL-1β HTRF® was 39-6500 pg/ml.

CC(C)N1CC(N(c2cnn(C)c2)S(=O)(=O)NC(=O)Nc2c3c(cc4c2CCC4)CCC3)C1 [Compound 64]
IC50: < 1000 nM

Cn1cc(N(C2CCN(CC(F)(F)F)CC2)S(=O)(=O)NC(=O)Nc2c3c(cc4c2CCC4)CCC3)cn1 [Compound 65]
IC50: 1000 to 3000 nM

Cn1cc(N(C2CC3(COC3)C2)S(=O)(=O)NC(=O)Nc2c3c(cc4c2CCC4)CCC3)cn1 [Compound 66]
IC50: 1000 to 3000 nM

CN1CCCC(N(c2cnn(C)c2)S(=O)(=O)NC(=O)Nc2c3c(cc4c2CCC4)CCC3)CC1 (centres unmarked) [Compound 67]
IC50: < 1000 nM

CN1CCCC1CN(c1cnn(C)c1)S(=O)(=O)NC(=O)Nc1c2c(cc3c1CCC3)CCC2 (centres unmarked) [Compound 68]
IC50: < 1000 nM

Cn1cc(N(C2CC3(C2)CN(CC(F)(F)F)C3)S(=O)(=O)NC(=O)Nc2c3c(cc4c2CCC4)CCC3)cn1 [Compound 69]
IC50: 3000 to 10000 nM

CCc1cc(CC)cc(NC(=O)NS(=O)(=O)N(c2cnn(C)c2)C2CCOCC2)c1 [Compound 70]
IC50: 3000 to 10000 nM

CC(C)c1cccc(NC(=O)NS(=O)(=O)N(c2cnn(C)c2)C2CCOCC2)c1 [Compound 71]
IC50: 10000 to 50000 nM

Cn1cc(N(C2CCOCC2)S(=O)(=O)NC(=O)Nc2cc(Cl)cc(Cl)c2)cn1 [Compound 72]
IC50: 1000 to 3000 nM

CC(C)c1cc(NC(=O)NS(=O)(=O)N(c2cnn(C)c2)C2CCOCC2)cc(C(C)C)c1 [Compound 73]
IC50: 1000 to 3000 nM

CC1CN(CCN(c2cnn(C)c2)S(=O)(=O)NC(=O)Nc2c3c(cc4c2CCC4)CCC3)C1 [Compound 74]
IC50: 3000 to 10000 nM

CCc1cc(NC(=O)NS(=O)(=O)N(c2cnn(C)c2)C2CCOCC2)cc(C(F)(F)F)c1 [Compound 75]
IC50: < 1000 nM

CCc1cc(C)cc(NC(=O)NS(=O)(=O)N(c2cnn(C)c2)C2CCOCC2)c1 [Compound 76]
IC50: 1000 to 3000 nM

CCc1cc(Cl)cc(NC(=O)NS(=O)(=O)N(c2cnn(C)c2)C2CCOCC2)c1 [Compound 77]
IC50: 1000 to 3000 nM

Cn1cc(N(C2CCOCC2(C)C)S(=O)(=O)NC(=O)Nc2c3c(cc4c2CCC4)CCC3)cn1 (centres unmarked) [Compound 78]
IC50: < 1000 nM

Cn1cc(N(C2CCOC(C)(C)C2)S(=O)(=O)NC(=O)Nc2c3c(cc4c2CCC4)CCC3)cn1 (centres unmarked) [Compound 79]
IC50: < 1000 nM

CCc1cc(NC(=O)NS(=O)(=O)N(c2cnn(C)c2)C2CCOCC2)cc(CC)c1F [Compound 80]
IC50: 1000 to 3000 nM

CCc1cc(NC(=O)NS(=O)(=O)N(c2cnn(C)c2)C2CCOCC2)cc(C(C)C)c1 [Compound 81]
IC50: 1000 to 3000 nM

CN1CC(N(c2cnn(C)c2)S(=O)(=O)NC(=O)Nc2c3c(cc4c2CCC4)CCC3)CCC1=O (centres unmarked) [Compound 82]
IC50: < 1000 nM

CN1CC(N(c2cnn(C)c2)S(=O)(=O)NC(=O)Nc2c3c(cc4c2CCC4)CCC3)CC1=O (centres unmarked) [Compound 83]
IC50: 1000 to 3000 nM

C[C@H]1CC(N(c2cnn(C)c2)S(=O)(=O)NC(=O)Nc2c3c(cc4c2CCC4)CCC3)CCO1 (some centres unmarked) [Compound 84]
IC50: < 1000 nM

C[C@@H]1CC(N(c2cnn(C)c2)S(=O)(=O)NC(=O)Nc2c3c(cc4c2CCC4)CCC3)CCO1 (some centres unmarked) [Compound 85]
IC50: < 1000 nM

Cc1ncc(N(C2CCOCC2)S(=O)(=O)NC(=O)Nc2c3c(cc4c2CCC4)CCC3)cn1 [Compound 86]
IC50: < 1000 nM

Cc1noc(N(C2CCOCC2)S(=O)(=O)NC(=O)Nc2c3c(cc4c2CCC4)CCC3)c1C [Compound 87]
IC50: < 1000 nM

CC1CCCC(C)C1NC(=O)NS(=O)(=O)N(c1cnn(C)c1)C1CCOCC1 (centres unmarked) [Compound 88]
IC50: < 1000 nM

CC(C)c1cc(Cl)cc(NC(=O)NS(=O)(=O)N(c2cnn(C)c2)C2CCOCC2)c1 [Compound 89]
IC50: 1000 to 3000 nM

CCOc1cc(NC(=O)NS(=O)(=O)N(c2cnn(C)c2)C2CCOCC2)cc(OCC)c1 [Compound 90]
IC50: 10000 to 50000 nM

CN1CCCC(N(c2cnn(C)c2)S(=O)(=O)NC(=O)Nc2cc(Cl)cc(Cl)c2)C1 (centres unmarked) [Compound 91]
IC50: < 1000 nM

Cn1cc(N(C2CCOCC2)S(=O)(=O)NC(=O)Nc2cc(Cl)cc(OC(F)(F)F)c2)cn1 [Compound 92]
IC50: 1000 to 3000 nM

COc1cc(Cl)cc(NC(=O)NS(=O)(=O)N(c2cnn(C)c2)C2CCOCC2)c1 [Compound 93]
IC50: < 1000 nM

Cn1cc(N(C2CCOCC2)S(=O)(=O)NC(=O)Nc2cc(Cl)cc(Cl)c2F)cn1 [Compound 94]
IC50: 1000 to 3000 nM

Cn1ccc(N(C2CCOCC2)S(=O)(=O)NC(=O)Nc2c3c(cc4c2CCC4)CCC3)c1 [Compound 95]
IC50: < 1000 nM

Cn1ncc(N(C2CCOCC2)S(=O)(=O)NC(=O)Nc2c3c(cc4c2CCC4)CCC3)n1 [Compound 96]
IC50: < 1000 nM

CCc1cc(NC(=O)NS(=O)(=O)N(c2cnn(C)c2)C2CCCN(C)C2)cc(C(F)(F)F)c1 (centres unmarked) [Compound 97]
IC50: < 1000 nM

CC(C)Cc1cc(Cl)cc(NC(=O)NS(=O)(=O)N(c2cnn(C)c2)C2CCOCC2)c1 [Compound 98]
IC50: 1000 to 3000 nM

Cc1nn(C)cc1N(C1CCOCC1)S(=O)(=O)NC(=O)Nc1c2c(cc3c1CCC3)CCC2 [Compound 99]
IC50: < 1000 nM

Cc1ncc(N(C2CCOCC2)S(=O)(=O)NC(=O)Nc2c3c(cc4c2CCC4)CCC3)c(C)n1 [Compound 100]
IC50: 1000 to 3000 nM

CC(C)c1cc(Cl)cc(NC(=O)NS(=O)(=O)N(c2cnn(C)c2)C2CCCN(C)C2)c1 (centres unmarked) [Compound 101]
IC50: < 1000 nM

CCc1cc(NC(=O)NS(=O)(=O)N(C[C@@H]2CCCN2C)c2cnn(C)c2)cc(C(F)(F)F)c1 [Compound 102]
IC50: < 1000 nM

Cc1nn(C)cc1N(C1CCCN(C)C1)S(=O)(=O)NC(=O)Nc1c2c(cc3c1CCC3)CCC2 (centres unmarked) [Compound 103]
IC50: < 1000 nM

CC(C)c1ncc(N(C2CCOCC2)S(=O)(=O)NC(=O)Nc2c3c(cc4c2CCC4)CCC3)cn1 [Compound 104]
IC50: < 1000 nM

CCC(C)c1cc(Cl)cc(NC(=O)NS(=O)(=O)N(c2cnn(C)c2)C2CCOCC2)c1 (centres unmarked) [Compound 105]
IC50: < 1000 nM

Cn1cc(N(C2CCOCC2)S(=O)(=O)NC(=O)Nc2cc(Cl)cc(OCC(F)(F)F)c2)cn1 [Compound 106]
IC50: < 1000 nM

CN1CCC[C@H]1CN(c1cnn(C)c1)S(=O)(=O)NC(=O)Nc1c2c(cc3c1CCC3)CCC2 [Compound 107]
IC50: < 1000 nM

Cc1csc(N(C2CCOCC2)S(=O)(=O)NC(=O)Nc2c3c(cc4c2CCC4)CCC3)n1 [Compound 108]
IC50: < 1000 nM

CCc1cc(N(C2CCOCC2)S(=O)(=O)NC(=O)Nc2c3c(cc4c2CCC4)CCC3)on1 [Compound 109]
IC50: < 1000 nM

CN1CCC[C@@H]1CN(c1cnn(C)c1)S(=O)(=O)NC(=O)Nc1c2c(cc3c1CCC3)CCC2 [Compound 110]
IC50: < 1000 nM

CN1CCC1CN(c1cnn(C)c1)S(=O)(=O)NC(=O)Nc1c2c(cc3c1CCC3)CCC2 (centres unmarked) [Compound 111]
IC50: < 1000 nM

CN1CCC[C@@H]1CN(c1cnn(C)c1)S(=O)(=O)NC(=O)Nc1cc(Cl)cc(Cl)c1 [Compound 112]
IC50: < 1000 nM

Cc1cc(N(C2CCOCC2)S(=O)(=O)NC(=O)Nc2c3c(cc4c2CCC4)CCC3)sn1 [Compound 113]
IC50: < 1000 nM

CCc1cc(NC(=O)NS(=O)(=O)N(C[C@H]2CCCN2C)c2cnn(C)c2)cc(C(F)(F)F)c1 [Compound 114]
IC50: < 1000 nM

CCCCc1cc(Cl)cc(NC(=O)NS(=O)(=O)N(c2cnn(C)c2)C2CCOCC2)c1 [Compound 115]
IC50: < 1000 nM

Cc1noc(N(C2CCCN(C)C2)S(=O)(=O)NC(=O)Nc2c3c(cc4c2CCC4)CCC3)c1C (centres unmarked) [Compound 116]
IC50: < 1000 nM
